This is an account of results in patent US20260102346A1, “LIPID COMPOSITION” (priority 2022, published 2026).

In assay [1] the test system is luciferase mRNA expression in livers and injection sites (muscles). Put plainly: In vivo luciferase expression liver/muscle of LNP and LPP with different cationic lipids (Example 10). More on the design: species or system Balb/c mice. The settings on record: 10 μg luciferase mRNA i.m., 6 hours after injection; for Liver/muscle (%, LNP): LNP preparation of the cationic lipid; for Liver/muscle (%, LPP): LPP preparation of the cationic lipid. An excerpt:
Test of in vivo luciferase signal expression: female Balb/c mice (Beijing Vital River Laboratory Animal Technology Co., Ltd.) of 6-8 weeks of age were divided into 18 groups (M5-LNP, M5-LPP, SM102-LNP, SM102-LPP, ALC0315-LNP, ALC0315LPP, SW-II-121-LNP, SW-II-121-LPP, SW-II-122-LNP, SW-II-122-LPP, SW-II-134-3-LNP, SW-II-134-3-LPP, SW-II-138-2-LNP, SW-II-138-2-LPP, SW-II-139-2-LNP, SW-II-139-2-LPP, SW-II-140-2-LNP, and SW-II-140-2-LPP groups, with 3 mice per group). M5-LNP, M5-LPP, SM102-LNP, SM102-LPP, ALC0315-LNP, ALC0315LPP, SW-II-121-LNP, SW-II-121-LPP, SW-II-122-LNP, SW-II-122-LPP, SW-II-134-3-LNP, SW-II-134-3-LPP, SW-II-138-2-LNP, SW-II-138-2-LPP, SW-II-139-2-LNP, SW-II-139-2-LPP, SW-II-140-2-LNP, and SW-II-140-2-LPP solutions containing 10 μg of luciferase mRNA were administered by intramuscular injection (hind limbs of mice), respectively. 6 Hours after the administration, mice were injected intraperitoneally with 30 mg of a […] substrate. The bioluminescence was measured in a Xenogen IVIS-200 imaging system 15 minutes after substrate injection to evaluate the expression of the luciferase mRNA in the livers and injection sites (muscles) of the mice.

The test system is the same in assay [2]. Put plainly: In vivo luciferase expression of LNP with M5, MC3, SW-II-121 (Example 11.1). More on the design: species or system Balb/c mice. The settings on record: LNP preparation, DSPC, PEG-DMG, 50:10:38.5:1.5, 10 μg luciferase mRNA, 6 hours after intramuscular administration. Here is the method: Test of in vivo luciferase signal expression: female Balb/c mice (Beijing Vital River Laboratory Animal Technology Co., Ltd.) of 6-8 weeks of age were divided into 3 groups (M5-LNP, MC3-LNP, and SW-II-121-LNP, with 3 mice per group). M5-LNP, MC3-LNP, and SW-II-121-LNP solutions containing 10 μg of luciferase mRNA were administered by intramuscular injection (hind limbs of mice), respectively. 6 Hours after the administration, mice were injected intraperitoneally with 30 mg of a […] substrate. The bioluminescence was measured in a Xenogen IVIS-200 imaging system 15 minutes after substrate injection to evaluate the expression of the luciferase mRNA in the livers and injection sites (muscles) of the mice.

For `CCCCCCCCC(CCCCCCCC)OC(=O)CCCCCCCN(CCO)CCCCCCCC(=O)OCCc1cccc(CCCC)c1` [SW-II-139-2], in assay [1], the “Liver/muscle (%, LNP)” value stood at 75.1 ± 16.1% and the “Liver/muscle (%, LPP)” value was determined as 2.0 ± 1.0%.
Take `CCCCCCCCC(CCCCCCCC)OC(=O)CCCCCCCN(CCO)CCCCCCCC(=O)OCCc1ccc(CCCCCCC)cc1` [SW-II-121]: in assay [1], the “Liver/muscle (%, LNP)” value is 77.8 ± 48.9% and the “Liver/muscle (%, LPP)” value amounted to 52.2 ± 38.9%. Besides, the “in vivo expression (luciferase, injection site and liver)” value in assay [2] was “significantly superior in vivo expression 6 hours after intramuscular administration to M5-LNP and MC3-LNP”.
`CCCCCCCCC(CCCCCCCC)OC(=O)CCCCCCCN(CCO)CCCCCCCC(=O)OCCCCc1ccc(CCCCC)cc1` [SW-II-138-2]: in assay [1], the “Liver/muscle (%, LNP)” value is 8.2 ± 5.7% and the “Liver/muscle (%, LPP)” value is listed as 3.5 ± 0.2%.
For `CCCCCCCCCOC(=O)CCCCCCCN(CCO)CCCCCCCC(=O)OC(CCCCCCCC)CCCCCCCC` [Compound M5], in that order: 10.1 ± 7.5% and 2.8 ± 0.3%.
For `CCCCCCCCCCCOC(=O)CCCCCN(CCO)CCCCCCCC(=O)OC(CCCCCCCC)CCCCCCCC` [SM-102, reference compound], in that order: 6.2 ± 3.3% and 2.7 ± 0.6%.
For `CCCCCCCCC(CCCCCCCC)OC(=O)CCCCCCCN(CCO)CCCCCCCC(=O)OCc1cccc(CCCCCC)c1` [SW-II-122], in that order: 11.9 ± 1.2% and 2.8 ± 0.8%.
On to `CCCCCCCCC(CCCCCCCC)OC(=O)CCCCCCCN(CCO)CCCCCCCC(=O)OCCc1ccccc1CCCC` [SW-II-140-2], for which, in assay [1], the “Liver/muscle (%, LNP)” value was found to be 7.4 ± 4.0% and the “Liver/muscle (%, LPP)” value is 3.3 ± 1.5%.
As to `CCCCCCCCC(CCCCCC)C(=O)OCCCCCCN(CCCCO)CCCCCCOC(=O)C(CCCCCC)CCCCCCCC` (stereo not shown) [ALC-0315, reference compound], in assay [1], the “Liver/muscle (%, LNP)” value is on record as 199.8 ± 35.8% and the “Liver/muscle (%, LPP)” value was 173.2 ± 103.9%.
For `CCCCCCCCCOC(=O)CCCCCCCN(CCO)CCCCCCCC(=O)OCCc1ccc(CCCC)c(CCCC)c1` [SW-II-134-3], in that order: 8.2 ± 2.9% and 1.5 ± 0.8%.
